Test results: US6384063B1, “Compound having effect of promoting neuron differentiation” (Nippon Kayaku Kabushiki Kaisha, priority 1997, dated 2002)
“Also recorded” adds a separate entry of the source.

System: PC12 cells
Assay: Neuron-like neurite extension on PC12 cells
Format: cell-based, rat
Details: morphological change observed microscopically one day after adding test compound
Text: Neuron-like neurite extension effect of the compounds of this invention on PC12 cells
The effect of the compounds of the invention was examined by a modification of the method of Green et al., Ann. Rev. Neurosci., 3, 353, 1980, and evaluated in terms of morphological change of PC12 cells and a level of the change. That is, PC12 cells were inoculated on Dulbecco-modified Eagle's medium supplemented with 10% calf fetal serum and 10% equine serum in approximately 100,000 cells/ml. The cells were incubated at 37° C. overnight in 5% CO2 using collagen-coated 96 well multiplates. Morphological change of the cells was microscopically observed one day after the test compound was added to each well under this conditions.
The minimum effective dose (MED, g/ml) of each compound on PC12 cells that caused neuron-like neurite extension is shown in Table 2 below.

Going from “2-methyl-4-oxo-4-phenyl-3-(1-piperazinyl)methylbutyric Acid [Compound 41F]” to “3-{2-(acetylamino)ethylthio}methyl-4-(4-methylphenyl)-4-oxobutyric Acid [Compound 12D]”, the Minimum effective dose (MED) to cause neuron-like neurite extension on PC12 cells rises from 6.3 µg/mL to 13 µg/mL (2.1-fold).

First: 4-(1-piperazinyl)methyl-5-oxo-5-phenylpentanoic Acid [Compound 42F]
Second: 4-(4-methoxyphenyl)-4-oxo-3-(1-piperidyl)methylbutyric Acid [Compound 3F]
The Minimum effective dose (MED) to cause neuron-like neurite extension on PC12 cells of the first is 1.9-fold lower: 1.6 µg/mL for the first, 3.1 µg/mL for the second.

First: 4-(4-methylphenyl)-4-oxo-3-(1-piperidyl)methylbutyric Acid [Compound 2F]
Second: COC(=O)[C@@H]1CCC(=O)[C@H]1CSC[C@H](NC(C)=O)C(=O)N1CCCC1 (relative stereo) [Compound 5B, trans-2-[(2R)-{2-acetylamino-3-oxo-3-(1-pyrrolidinyl)}propylthio]methyl-3-methoxycarbonyl-1-cyclopentanone]
The Minimum effective dose (MED) to cause neuron-like neurite extension on PC12 cells of the first is 3.9-fold higher: 3.1 µg/mL for the first, 0.8 µg/mL for the second.

Compared with COC(=O)[C@@H]1CCCN1C(=O)[C@H](CSC[C@@H]1C(=O)CC[C@H]1C(=O)O)NC(C)=O (relative stereo) [Compound 6B, trans-2-[(2R)-[2-acetylamino-3-{1-((2S)-2-methoxycarbonylpyrrolidinyl)}-3-oxo]propylthio]methyl-3-oxo-1-cyclopentanecarboxylic Acid], COC(=O)[C@@H]1CCN1C(=O)[C@H](CSC[C@@H]1C(=O)CC[C@H]1C(=O)O)NC(C)=O (relative stereo) [Compound 7B, trans-2-[(2R)-[2-acetylamino-3-{1-((2S)-2-methoxycarbonylazetidinyl)}-3-oxo]propylthio]methyl-3-oxo-1-cyclopentanecarboxylic Acid] is 1.9-fold higher in Minimum effective dose (MED) to cause neuron-like neurite extension on PC12 cells: 1.6 µg/mL for the first, 3.1 µg/mL for the second.

Compared with CC(=O)NC(CCCCCCCCCCSC[C@@H]1C(=O)CC[C@H]1C(=O)O)C(=O)O (relative stereo) [Compound 9B, trans-2-[(11-acetylamino-11-carboxy)undecylthio]methyl-3-oxo-1-cyclopentanecarboxylic acid], CC(=O)N[C@@H](CSCC1CC(C(=O)O)CC1=O)C(=O)O (stereo partly drawn) [Compound 1A, 4-[(2R)-(2-acetylamino-2-carboxy)ethylthio]methyl-3-oxo-1-cyclopentanecarboxylic Acid] is 2-fold lower in Minimum effective dose (MED) to cause neuron-like neurite extension on PC12 cells: 6.3 µg/mL for the first, 3.2 µg/mL for the second.

CC(=O)N[C@@H](CSC[C@@H]1C(=O)CC[C@H]1C(=O)O)C(=O)N1CCCC1 [Compound 1B, (1R,2S)-2-[(2R)-{2-acetylamino-3-oxo-3-(1-pyrrolidinyl)}propylthio]methyl-3-oxo-1-cyclopentanecarboxylic Acid] and COC(=O)[C@H](CSCC1CC(C(=O)O)CC1=O)NC(C)=O (stereo partly drawn) [Compound 2A, 4-[(2R)-(2-acetylamino-2-methoxycarbonyl)ethylthio]methyl-3-oxo-1-cyclopentanecarboxylic Acid] are the same in Minimum effective dose (MED) to cause neuron-like neurite extension on PC12 cells: 3.2 µg/mL for the first, 3.2 µg/mL for the second.

First: CC(=O)N[C@@H](CSC[C@@H]1C(=O)CC[C@H]1C(=O)O)C(=O)N1CCOCC1 [Compound 2B, (1R,2S)-2-[(2R)-{2-acetylamino-3-(4-morpholinyl)-3-oxo}propylthio]methyl-3-oxo-1-cyclopentanecarboxylic Acid]
Second: CC(=O)N[C@@H](CSCC1=C[C@H](O)CC1=O)C(=O)O [Compound 2C, (4R)-2-[(2R)-(2-acetylamino-2-carboxy)ethylthio]methyl-4-hydroxy-2-cyclopenten-1-one]
The Minimum effective dose (MED) to cause neuron-like neurite extension on PC12 cells of the first is 3.9-fold lower: 1.6 µg/mL for the first, 6.3 µg/mL for the second.

First: COC(=O)[C@H](CSCC1C(=O)c2ccccc2C1C(=O)O)NC(C)=O (stereo partly drawn) [Compound 6A, 2-((2R)-(2-acetylamino-2-methoxycarbonyl)ethylthio)methyl-3-oxo-1-indanecarboxylic Acid]
Second: CN1CCN(CC(CC(=O)O)C(=O)c2ccccc2)CC1 (stereo not shown) [Compound 6F, 3-{1-(4-methylpiperazinyl)}methyl-4-oxo-4-phenylbutyric acid]
The Minimum effective dose (MED) to cause neuron-like neurite extension on PC12 cells of the first is 8.1-fold higher: 25 µg/mL for the first, 3.1 µg/mL for the second.

Going from CC(=O)N[C@@H](CSCC(CC(=O)O)C(=O)c1ccccc1)C(=O)O (stereo partly drawn) [Compound 7D, 3-[(2R)-(2-acetylamino-2-carboxy)ethylthio]methyl-4-oxo-4-phenylbutyric Acid] to COC(=O)[C@H](CSCC(CC(=O)O)C(=O)c1ccccc1)NC(C)=O (stereo partly drawn) [Compound 8D, 3-[(2R)-(2-acetylamino-2-methoxycarbonyl)ethylthio]methyl-4-oxo-4-phenylbutyric Acid], the Minimum effective dose (MED) to cause neuron-like neurite extension on PC12 cells falls from 13 µg/mL to 6.3 µg/mL (2.1-fold).

Going from COC(=O)[C@H](CSCC(CC(=O)O)C(=O)c1ccc(OC)cc1)NC(C)=O (stereo partly drawn) [Compound 9D, 3-[(2R)-(2-acetylamino-2-methoxycarbonyl)ethylthio]methyl-4-(4-methoxyphenyl)-4-oxobutyric Acid] to CC(=O)N[C@@H](CSC[C@@H]1C(=O)CC[C@H]1C(=O)O)C(=O)N1CCN(c2ccccc2)CC1 [Compound 13B, (1R,2S)-2-[(2R)-2-acetylamino-3-oxo-3-{1-(4-phenyl)piperazinyl}propylthio]methyl-3-oxo-1-cyclopentanecarboxylic Acid], the Minimum effective dose (MED) to cause neuron-like neurite extension on PC12 cells falls from 50 µg/mL to 1.6 µg/mL (31-fold).

Going from COC(=O)[C@H](CSCC(CC(=O)O)C(=O)c1ccc(C)cc1)NC(C)=O (stereo partly drawn) [Compound 13D, 3-{(2R)-(2-acetylamino-2-methoxycarbonyl)ethylthio}methyl-4-(4-methylphenyl)-4-oxobutyric Acid] to C[n+]1cccc(CCCSCC2C(=O)CCC2C(=O)O)c1.[I-] [Compound 15B, (1R,2S)-2-[3-{3-(1-methylpyridinium iodide)}propylthio]methyl-3-oxo-1-cyclopentanecarboxylic Acid], the Minimum effective dose (MED) to cause neuron-like neurite extension on PC12 cells falls from 13 µg/mL to 3.1 µg/mL (4.2-fold).

Compared with COC(=O)[C@H](CSCC(CC(=O)O)C(=O)c1cccnc1)NC(C)=O (stereo partly drawn) [Compound 32D, 3-[(2R)-(2-acetylamino-2-methoxycarbonyl)ethylthio]methyl-4-oxo-4-(3-pyridyl)butyric Acid], CC(=O)N[C@@H](CSCC(CCC(=O)O)C(=O)c1ccccc1)C(=O)O (stereo partly drawn) [Compound 38D, 4-[(2R)-{(2-acetylamino-2-carboxy)ethylthio}]methyl-5-oxo-5-phenylpentanoic acid] is 2-fold higher in Minimum effective dose (MED) to cause neuron-like neurite extension on PC12 cells: 3.1 µg/mL for the first, 6.3 µg/mL for the second.

Going from “(1R,2S)-2-[(2R)-({2-carboxy-2-pentafluoropropionylamino)ethylthio]methyl-3-oxo-1-cyclopentanecarboxylic acid [Compound 4B]” to “trans-2-[(2R)-(2-carboxy-2-pentafluoropropionylamino)ethylthio]methyl-3-hydroxymethyl-1-cyclopentanone [Compound 8B]”, the Minimum effective dose (MED) to cause neuron-like neurite extension on PC12 cells falls from 3.2 µg/mL to 0.8 µg/mL (4-fold).

System: not listed separately
Assay: Solubility of NA32176A (physicochemical properties)
Details: qualitative, by solvent; listed as NA32176A
Text: Physicochemical properties of the thus obtained physiologically active substance NA32176A are shown below.

In the case of CC(C)(CO)C(O)C(=O)NCCC(=O)NCCSCC1C(=O)CCC1C(=O)O [Compound 1E, (1R,2S)-2-[N-(panthoyl- -alanylamido)ethylthio]methyl-3-oxo-1-cyclopentanecarboxylic Acid], the Solubility is reported as “soluble in a lower alcohol, water or dimethylsulfoxide; also recorded: insoluble in hexane or petroleum ether”.

System: PC 12 cells
Assay: not given
Details: qualitative, background art; cited from earlier work

For CN[C@@H]1C[C@H]2O[C@@](C)([C@@H]1OC)n1c3ccccc3c3c4c(c5c6ccccc6n2c5c31)C(=O)NC4 [staurosporin], the “PC 12 cell differentiation promoting activity” value is given as “found to have the PC 12 cell differentiation promoting activity”.
